We go through 1 compound from patent US10695296B2, “Formulations, methods, kit, and dosage forms for improved stability of an active pharmaceutical ingredient” (Asana BioSciences, LLC, priority 2017, dated 2020).

The structures appear in SMILES notation.

This test has as its system ST052B tumor. As to the kind of experiment: ST052B tumor xenograft model (vemurafenib-sensitive melanoma). It counts as in vivo. Particulars: ST052B xenograft mice, oral BID; active ingredient at 20 mg/kg; over the vehicle control. The procedure:
The ST052B tumor is derived from a melanoma patient prior to treatment with vemurafenib. ST052B tumor cells were implanted into mice to form xenograft tumors, and the mice were dosed orally BID in four treatment groups: 1) vehicle control; 2) Dabrafenib; […]; 3) active ingredient (N-(3-(2-(6-amino-4-(trifluoromethyl)pyridin-3-yl)-4-morpholinopyrido[3,2-d]pyrimidin-6-yl)-2-fluorophenyl)-3-fluoropropane-1-sulfonamide) at 10 mg/kg; and 4) the same active ingredient at 20 mg/kg.

Turning to `Nc1cc(C(F)(F)F)c(-c2nc(N3CCOCC3)c3nc(-c4cccc(NS(=O)(=O)CCCF)c4F)ccc3n2)cn1` [CMPD A, N-(3-(2-(6-amino-4-(trifluoromethyl)pyridin-3-yl)-4-morpholinopyrido[3,2-d]pyrimidin-6-yl)-2-fluorophenyl)-3-fluoropropane-1-sulfonamide], the “inhibition of tumor growth” value is given as “dose-dependent inhibition of tumor growth”.
